Test results as given in patent US12708630B2, “Combined therapy of 4′-thio-5-aza-2′-deoxycytidine and Venetoclax” (PINOTBIO, INC., priority 2021, dated 2026).
Where two headings read alike, the source gives them in different places.

Columns and labels:
[1] = tested on: BL0382PD PDX (bladder); type: in vivo, Mouse; conditions: NSG, mouse, in vivo, 0.75 mg/kg, 2 cycles
Description: The efficacy of Aza-T-dCyd was confirmed by tumor growth curves after administration of Aza-T-dCyd in various solid cancer xenograft models. […]

[2] = tested on: DNA methylation; test: DNA demethylation; type: cell-based
Description: Through DNA demethylation caused by Aza-T-dCyd treatment, various tumor suppressor genes and genes required for differentiation induction of AML cells were reactivated, and the reactivated expression patterns of these genes were confirmed by RNA-seq data analysis (FIG. 24).

[3] = tested on: leukemia cell lines; test: Growth-inhibitory activity on leukemia cell lines (GI50); type: cell-based; conditions: 72 h, read-out: GI50 values (half maximal growth inhibitory concentrations)
Protocol: The growth-inhibitory activity of Aza-T-dCyd, a DNMT1 inhibitor, was measured in leukemia cell lines to determine its inhibitory effect on cell proliferation.
The growth-inhibitory activity of DNMT1 inhibitors, Aza-T-dCyd and Decitabine, was measured on leukemia cell lines to determine their effect on cell proliferation.

[4] = target: T1, DNMT1 (Homo sapiens, UniProt P26358); test: DNMT1 expression in HL-60 xenograft tumor samples; type: in vivo, mice; set-up: tumor samples were collected on day 11 to determine the expression of DNMT1, DNMT3A, and DNMT3B; from tissue; host or cells: HL-60 xenograft tumour samples (mouse host); conditions: 2 mg/kg NTX-301 or 0.75 mg/kg Decitabine intraperitoneally, day 11
T1 sequence (P26358 whole entry): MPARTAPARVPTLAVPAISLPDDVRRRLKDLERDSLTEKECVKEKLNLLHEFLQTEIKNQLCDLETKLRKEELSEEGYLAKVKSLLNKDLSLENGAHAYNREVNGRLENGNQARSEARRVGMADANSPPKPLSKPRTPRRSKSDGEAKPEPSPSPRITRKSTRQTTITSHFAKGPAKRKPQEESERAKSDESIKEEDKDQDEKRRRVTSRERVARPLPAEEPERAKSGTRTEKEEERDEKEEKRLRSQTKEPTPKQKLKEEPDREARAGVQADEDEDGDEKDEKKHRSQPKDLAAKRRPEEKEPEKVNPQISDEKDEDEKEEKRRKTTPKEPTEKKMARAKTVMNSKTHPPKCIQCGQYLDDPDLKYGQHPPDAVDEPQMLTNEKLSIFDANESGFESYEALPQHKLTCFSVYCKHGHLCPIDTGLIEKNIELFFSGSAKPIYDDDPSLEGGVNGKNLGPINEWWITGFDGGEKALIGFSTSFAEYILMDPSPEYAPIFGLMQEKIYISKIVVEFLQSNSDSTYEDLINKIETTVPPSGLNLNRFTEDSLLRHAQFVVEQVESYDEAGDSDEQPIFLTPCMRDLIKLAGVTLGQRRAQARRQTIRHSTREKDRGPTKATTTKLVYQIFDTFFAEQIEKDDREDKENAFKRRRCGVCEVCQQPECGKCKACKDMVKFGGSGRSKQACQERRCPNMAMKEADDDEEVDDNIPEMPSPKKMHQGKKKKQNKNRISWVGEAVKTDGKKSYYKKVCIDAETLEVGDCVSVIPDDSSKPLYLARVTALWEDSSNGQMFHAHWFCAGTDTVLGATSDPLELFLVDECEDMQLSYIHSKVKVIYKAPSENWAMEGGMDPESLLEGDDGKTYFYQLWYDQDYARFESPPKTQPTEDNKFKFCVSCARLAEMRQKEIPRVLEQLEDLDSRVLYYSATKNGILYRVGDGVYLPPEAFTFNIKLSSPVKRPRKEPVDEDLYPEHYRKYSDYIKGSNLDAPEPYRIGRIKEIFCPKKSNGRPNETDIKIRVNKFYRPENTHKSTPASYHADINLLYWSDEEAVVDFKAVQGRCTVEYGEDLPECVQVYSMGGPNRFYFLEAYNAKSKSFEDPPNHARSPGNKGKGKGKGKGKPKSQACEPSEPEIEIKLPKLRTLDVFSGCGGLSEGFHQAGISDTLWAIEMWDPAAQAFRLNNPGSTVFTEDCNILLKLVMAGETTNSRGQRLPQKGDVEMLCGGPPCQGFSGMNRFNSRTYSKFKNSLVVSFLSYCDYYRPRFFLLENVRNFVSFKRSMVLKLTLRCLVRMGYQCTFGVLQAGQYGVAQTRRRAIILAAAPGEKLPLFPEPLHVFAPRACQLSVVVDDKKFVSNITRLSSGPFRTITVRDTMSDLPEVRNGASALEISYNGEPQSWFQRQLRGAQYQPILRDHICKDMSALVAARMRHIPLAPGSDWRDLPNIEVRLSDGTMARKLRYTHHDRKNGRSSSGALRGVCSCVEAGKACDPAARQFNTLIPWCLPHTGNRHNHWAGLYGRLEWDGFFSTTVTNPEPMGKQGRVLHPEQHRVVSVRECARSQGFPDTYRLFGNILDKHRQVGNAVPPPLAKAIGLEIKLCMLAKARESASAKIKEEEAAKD
Protocol: (§1) As the efficacy of DNMT1 inhibitors correlates with their selective profile for targeting DNMT1 and the de novo methyltransferases DNMT3A and DNMT3B, we confirmed the expression of DNMT1, DNMT3A, and DNMT3B in the Aza-T-dCyd and Decitabine treated groups in this xenograft model (FIG. 27).
(§2) In the HL-60 xenograft mice model, 2 mg/kg of NTX-301 (Aza-T-dCyd) or 0.75 mg/kg of Decitabine were administered intraperitoneally, and then tumor samples were collected on day 11 to determine the expression of DNMT1, DNMT3A, and DNMT3B. […] On the other hand, the expression levels of DNMT3A and DNMT3B were different in the Aza-T-dCyd and Decitabine treatment groups.

[5] = tested on: p15 tumor suppressor gene; test: p15 tumor suppressor gene re-expression (RT-PCR) in MV4-11 cells; type: cell-based; conditions: MV4-11 cell line
Protocol: Therefore, to determine the re-expression of tumor suppressor genes through epigenetic regulation mechanisms induced by DNMT1 inhibition upon Aza-T-dCyd (NTX-301) treatment, MV4-11 cells, an AML cell line, were treated with Aza-T-dCyd at different concentrations. […] Table 1 below compares the degree of p15 mRNA re-expression after DNMT1 inhibitor (Aza-T-dCyd/Decitabine) treatment in the MV4-11 cell line, an AML cell (fold increase from 0 nM is shown).

[6] = tested on: systemic MV4-11 engraftment model
Protocol: After establishing a systemic MV4-11 engraftment model that more accurately depicts the disease in humans, Aza-T-dCyd was administered orally at doses ranging from 0.4 to 1.5 mg/kg.
After establishment of the systemic MV4-11 engraftment model, Aza-T-dCyd was administered orally at doses of 1.5, 2.0, and 2.5 mg/kg (using the standard dose/dosing schedule used in preclinical trials for decitabine/azacytidine).
After establishing a systemic MV4-11 engraftment model, blood was collected at pre-treatment (Day 21) and mid-treatment (Day 36, 56, 77) in the Aza-T-dCyd and Decitabine/Azacytidine groups and analyzed for complete blood count (CBC) values.
To determine whether the anti-cancer efficacy in the systemic MV4-11 engraftment model was directly related to the ability to suppress the number of cancer cells, we performed experiments to measure body luminescence after systemic engraftment using the luciferase-transfected Mv4-11 cell line.

[7] = tested on: HL-60 AML xenograft; test: HL-60 AML xenograft model; type: in vivo
[8] = target: T1, DNMT1; test: DNMT1 protein Western blotting in cancer cell lines; type: cell-based; set-up: endogenous in cells; host or cells: MV4-11, KG-1a, CCRF-CEM, NCI-H23, HCT-116, IGROV-1 (also HL-60, THP-1)
[9] = tested on: HCT-116 (colorectal); test: HCT-116 (colorectal) xenograft model; type: in vivo, Mouse; conditions: colorectal (HCT-116) xenograft, Decitabine comparator, dose not given
Protocol: The efficacy of Aza-T-dCyd was confirmed by tumor growth curves after administration of Aza-T-dCyd in various solid cancer xenograft models. Aza-T-dCyd at a dose of 1~2 mg/kg was administered repeatedly for 2~6 cycles in QD×5, showing excellent anti-cancer effects (evidenced by test/control (T/C) value≤40%).

[10] = target: DNMT3B (Homo sapiens, UniProt Q9UBC3); test: DNMT3B expression in HL-60 xenograft tumor samples; type: in vivo, mice; set-up: tumor samples were collected on day 11 to determine the expression of DNMT1, DNMT3A, and DNMT3B; from tissue; host or cells: HL-60 xenograft tumour samples (mouse host); conditions: 2 mg/kg NTX-301 or 0.75 mg/kg Decitabine intraperitoneally, day 11
Protocol: as §1, §2

[11] = tested on: MV4-11 AML cells; test: MV4-11 AML xenograft implanted subcutaneously, combination with venetoclax; type: in vivo, mice; conditions: administered alone (Aza-T-dCyd 2 mpk), FIGS. 30 and 31
Protocol: After establishing a xenograft systemic AML model in which MV4-11 AML cells were implanted subcutaneously in mice, Aza-T-dCyd alone at 2.0 mpk for 1 cycle (5 days on, 2 days off, 5 days on, 9 days off) was administered (PO) or Aza-T-dCyd 0.5, 1.0 or 2.0 mpk plus venetoclax 50 mpk or 100 mpk administered orally (PO) for 1 cycle (venetoclax on for 5 days, off for 2 days, repeated for 3 weeks). Anti-cancer efficacy was determined in disease models in which azacitidine 5.0 mpk was administered intraperitoneally (IP) alone or in combination with optimal dose of azacitidine (2.5 mpk) and venetoclax 50 mpk or 100 mpk as a control.

[12] = tested on: cytidine deaminase; test: Degradation by cytidine deaminase; conditions: compared to Decitabine/Azacytidine, oral administration
Description: Decitabine/Azacytidine is susceptible to metabolism by cytidine deaminases in the body, resulting in an unstable PK profile that limits its efficacy.

Q: With `Nc1ncn([C@H]2C[C@H](O)[C@@H](CO)O2)c(=O)n1` [Decitabine, 5-aza-2′-deoxycytidine] as the molecule, how does the toxicity [1] read?
A: showed toxicity after 2 cycles

Q: And the “pattern of DNA demethylation” value [2]?
A: genome-wide demethylation

Q: And the GI50 [3]?
A: 24 to 4300 nM

Q: What about the “DNMT1 expression in tumor samples” value [4] of the same molecule?
A: significantly reduced

Q: What about the “p15 mRNA re-expression” value ([5]; 6 nM) of the same molecule?
A: 1.3 ± 0.27 fold increase from 0 nM

Q: What about the “p15 mRNA re-expression” value ([5]; 20 nM) of the same molecule?
A: 1.7 ± 0.85 fold increase from 0 nM

Q: And the “p15 mRNA re-expression” value ([5]; 60 nM)?
A: 2.2 ± 0.52 fold increase from 0 nM

Q: And the “p15 mRNA re-expression” value ([5]; 200 nM)?
A: 4.3 ± 0.83 fold increase from 0 nM

Q: What about the “anti-AML activity and survival” value ([6]; Aza-T-dCyd oral 1.5, 2.0 and 2.5 mg/kg, decitabine/azacytidine at standard preclinical dose/schedule) of the same molecule?
A: no therapeutic effect

Q: And the “complete blood count (WBC, RBC, Neutrophil, Platelet)” value ([6]; blood at Day 21, 36, 56, 77)?
A: all individuals died before blood samples were collected

Q: And the “tolerability above the maximum dose” value ([7]; above 0.75 mg/kg)?
A: animals died above this dose

Q: What about the tumor suppression ([7]; maximum dose 0.75 mg/kg) of the same molecule?
A: no tumor suppression

Q: What about the DNMT1 inhibition ([8]; MV4-11 (AML cell line) cells, different concentrations, FIG. 10) of the same molecule?
A: inhibits DNMT1

Q: What about the T/C [9] of the same molecule?
A: 45%

Q: And the “DNMT3B expression level in tumor samples” value [10]?
A: no effect was observed

Q: `Nc1ccn([C@H]2C[C@H](O)[C@@H](CO)S2)c(=O)n1` [T-dCyd, reference compound] was tested. Which DNMT1 inhibition ([8]; CCRF-CEM (ALL cell line) cells, FIG. 12) did it give?
A: inhibits DNMT1

Q: And the DNMT1 inhibition ([8]; KG-1a (AML cell line) cells, FIG. 11)?
A: inhibits DNMT1

Q: What about the DNMT1 inhibition ([8]; NCI-H23, HCT-116 and IGROV-1 cell lines, FIG. 13) of the same molecule?
A: inhibits DNMT1

Q: Which “anti-cancer effect (tumor volume), single agent” value [11] does the source give for `CC1(C)CCC(CN2CCN(c3ccc(C(=O)NS(=O)(=O)c4ccc(NCC5CCOCC5)c([N+](=O)[O-])c4)c(Oc4cnc5[nH]ccc5c4)c3)CC2)=C(c2ccc(Cl)cc2)C1` [Venetoclax] here?
A: limited tumor regression

Q: With `Nc1ncn(C2CC(O)C(COP(=O)(O)OP(=O)(O)OP(=O)(O)O)S2)c(=O)n1` (stereo not drawn) [aza-T-dCTP] as the molecule, how does the “rate of degradation by cytidine deaminase” value [12] read?
A: slower rate of degradation by cytidine deaminase

Q: `Nc1ncn([C@@H]2O[C@H](CO)[C@@H](O)[C@H]2O)c(=O)n1` [Azacytidine, reference compound] was tested. Which “complete blood count (WBC, RBC, Neutrophil, Platelet)” value ([6]; mouse, in vivo) did it give?
A: severe neutropenia
